From a melting point compilation (Tetko et al.)

| SMILES | melting point [°C] |
| --- | --- |
| COc1ccnc(N)c1 | 99 to 101 |
| CC(C)(C)c1nc2ccc(S(=O)(=O)Cl)cc2s1 | 122 to 124 |
| Nc1cc(-c2c(F)cccc2F)no1 | 114 to 116 |
| CCCNCC(=O)Nc1ccc(Cl)cc1 | 44 to 46 |
| O=C(O)CC(=O)Nc1nccs1 | 181 to 183 |
| CNc1ccnc(C)n1 | 79 to 81 |
| O=C(O)c1nn(-c2ccccc2F)cc1Br | 235 to 237 |
| O=C(c1ccc(O)cc1)c1ccc(F)cc1 | 170 to 172 |
| COc1ccc(Cl)cc1CC(=O)O | 131 to 133 |
| CCOc1ccc(C(=O)NCC(=O)O)cc1OCC | 119 to 122 |
| Cc1ccc(N)cc1OCC1CCOCC1 | 114 to 116 |
| O=C(O)c1ccc(Cn2cc(Cl)cn2)o1 | 117 to 119 |
| O=C(O)Cc1c(F)cncc1Cl | 99 to 101 |
| O=C(O)c1cc(S(=O)(=O)NCCOc2ccccc2)ccc1Cl | 169 to 171 |
| COC(=O)COc1ccc(C(C)=O)cc1 | 85 to 87 |
| CCCc1[nH]nc(C(=O)O)c1[N+](=O)[O-] | 158 to 160 |
| Cc1cc(Cl)n2ncnc2n1 | 220 to 222 |
| Nc1nc(C2CC2)c(C(=O)O)s1 | 99 to 101 |
| Nc1ccc(S(N)(=O)=O)cc1Br | 153 to 155 |
| CC(C)(C)OC(=O)NC(C(=O)O)C(C)(C)C (centres undefined) | 117 to 119 |
| COC(=O)c1ccc(Oc2ccc(Cl)cc2N)cc1 | 83 to 85 |
| CN(C)C(=O)c1cccnc1Cl | 69 to 71 |
| Cc1cc(C)cc(Oc2ccc(N)cc2)c1 | 55 to 57 |
| O=S(=O)(Cl)c1ccc(-n2cccn2)c(F)c1 | 104 to 106 |

| SMILES | melting point [°C] |
| --- | --- |
| COc1ccc(N)cc1CO | 115 to 117 |
| ClCc1ccc(-c2nc3cc(Cl)ccc3s2)cc1 | 164 to 166 |
| COc1ccc(C(NC(=O)CCl)c2ccc(OC)cc2)cc1 | 118 to 120 |
| COC(=O)C(=O)CC(=O)c1ccc(N2CCOCC2)cc1 | 164 to 166 |
| CC(Sc1nnnn1C1CC1)C(=O)O (centres undefined) | 116 to 118 |
| Brc1cccc2[nH]ncc12 | 165 to 167 |
| CCOc1cccc2cc(C(C)=O)oc12 | 72 to 74 |
| NCc1nnc2n1CC(C(F)(F)F)CC2 (centres undefined) | 55 to 57 |
| O=C(O)c1cnc(OCC(F)(F)F)c(Cl)c1 | 162 to 164 |
| O=C(Nc1cc(Cl)ccc1C(=O)O)c1ccc(F)cc1 | 250 to 252 |
| CC(C)n1c(=O)[nH]c2cc(C(=O)O)ccc2c1=O | 332 to 334 |
| Cc1cc(C(=O)O)c(C)n1C(C)C | 178 to 180 |
| CN(C)S(=O)(=O)c1ccc(O)cc1 | 95 to 97 |
| Cc1nc(C)n(Cc2cccc(N)c2)n1 | 109 to 111 |
| Cn1c(=O)c2cc(N)cnc2n(C)c1=O | 219 to 221 |
| [N-]=[N+]=Nc1ccnc(CO)c1 | 59 to 61 |
| Cc1ccc(N=C=O)c(C#N)c1 | 52 to 54 |
| Cn1nc(C(=O)O)c(=O)c2ccccc21 | 244 to 246 |
| Cc1cc(C)c2c(n1)NCC(=O)N2 | 209 to 211 |
| O=[N+]([O-])c1ccccc1OCC1CO1 (centres undefined) | 52 to 54 |
| O=C(O)CCc1ccc(Br)cc1F | 97 to 99 |
| Clc1nc(-c2ccsc2)nc2sc3c(c12)CCCC3 | 148 to 150 |
| O=C(O)CCC1CCNCC1 | 275 to 277 |
| Cc1ccc(-c2nnc(C(C)Cl)o2)cc1C (centres undefined) | 86 to 88 |

| SMILES | melting point [°C] |
| --- | --- |
| O=C(CCCCl)c1cc(F)ccc1O | 66 to 68 |
| O=C(Nc1ccc(C(=O)O)c(O)c1)c1cc(F)cc(F)c1 | 269 to 271 |
| O=C(O)c1ccnc(OC2CCC2)c1 | 153 to 155 |
| CCOC(=O)c1c(-c2ccccc2)csc1NC(=O)CCCl | 64 to 66 |
| COc1ccc(CC(=O)NCc2ccc(C(=O)O)cc2)cc1 | 229 to 231 |
| O=C(O)C(Oc1ccccc1)c1ccccc1 (centres undefined) | 103 to 105 |
| O=C1c2ccccc2S(=O)(=O)N1CCl | 145 to 147 |
| NC(=O)C1=CCCC1 | 166 to 168 |
| CC(C)(C)[Si](C)(C)Oc1cc(C(=O)O)cc2ccccc12 | 153 to 155 |
| Nc1cccc2c1CN(c1nccs1)C2 | 119 to 121 |
| Cc1c(NC(=S)Nc2c(C)n(C)n(-c3ccccc3)c2=O)c(=O)n(-c2ccccc2)n1C | 93 to 95 |
| NS(=O)(=O)C1CN(C(=O)OCc2ccccc2)C1 | 103 to 105 |
| COc1ccc(-c2cc(C(=O)O)c3ccccc3n2)cc1OC | 234 to 236 |
| O=C(O)C1CCCN1c1ncnc2sccc12 (centres undefined) | 211 to 213 |
| CCOc1cc(C(=O)O)ccc1OCC(=O)OC | 129 to 131 |
| O=C1NCCN1CCN1CCNCC1 | 139 to 141 |
| O=S(=O)(NC1CCNCC1)c1ccccc1 | 157 to 159 |
| O=S(=O)(Cl)C1CCCCC1O (centres undefined) | 49 to 51 |
| N#CC=Cc1ccc(C(F)(F)F)cc1 | 89 to 91 |
| Cc1cccc(Cl)c1NC(=O)CBr | 139 to 141 |
| Cn1cncc1C(N)=O | 178 to 180 |
| O=S1(=O)N=C2CCCCCN2C(CCl)N1 (centres undefined) | 181 to 183 |
| O=[N+]([O-])c1ccc(Cn2ccnc2)cc1 | 39 to 41 |
| Cc1cc(N)n(-c2nc3ccccc3[nH]2)n1 | 203 to 205 |

| SMILES | melting point [°C] |
| --- | --- |
| O=C(O)CN1C(=O)c2cccnc2C1=O | 239 to 241 |
| O=Cc1c(Cl)nc2ccccn2c1=O | 213 to 215 |
| CC1CC1c1cc(N)on1 (centres undefined) | 55 to 57 |
| O=C(O)CN1C(=O)C2CCCCC2C1=O (centres undefined) | 88 to 90 |
| NC(=O)CC1CCNCC1 | 146 to 148 |
| NC(=O)CCN1C(=O)NC2(CCCC2)C1=O | 150 to 152 |
| COc1ccc(NC(=O)c2ccc(CCl)cc2)cc1 | 189 to 191 |
| O=[N+]([O-])c1cn(Cc2ccc(F)cc2)cn1 | 109 to 111 |
| O=C(O)Cc1c[nH]c2ccc([N+](=O)[O-])cc12 | 189 to 191 |
| Cc1cc(N)nn1-c1cccc(Cl)c1 | 58 to 60 |
| CCCc1c(C(=O)O)cnn1-c1cccc(F)c1 | 97 to 99 |
| Cc1cccc(C2(C(=O)O)CCCCC2)c1 | 141 to 143 |
| CCN(CC)C(=O)c1ccccc1N | 71 to 73 |
| CC(C)(C)c1ccc(-c2cc(N)on2)cc1 | 148 to 150 |
| CCS(=O)(=O)c1cc(F)ccc1N | 43 to 45 |
| CC(C)(C)NC(=O)C1CCCCN1 (centres undefined) | 79 to 81 |
| O=C(CCl)Nc1cccc(C(=O)O)c1 | 220 to 222 |
| N#Cc1ccc(N2C(=O)NC(CCC(=O)O)C2=O)cc1 (centres undefined) | 220 to 222 |
| Cc1nc(N)n(-c2ccccc2)n1 | 131 to 133 |
| Cc1cc(C(C)(C)C)cc(C)c1S(=O)(=O)Cl | 113 to 115 |
| Nc1ccc(CC(=O)N2CCSCC2)cc1 | 118 to 120 |
| Cc1cc(-c2nnco2)ccc1[N+](=O)[O-] | 119 to 121 |
| FC(F)(F)c1ccc(-n2cccn2)nc1 | 66 to 68 |
| Cn1cnc([N+](=O)[O-])c1Br | 177 to 179 |

| SMILES | melting point [°C] |
| --- | --- |
| Nc1ccc(CCN2CCCCC2)cc1 | 54 to 56 |
| O=C(O)CCC(=O)N1CCc2sccc2C1 | 130 to 132 |
| CCOC(=O)NC(=N)N | 104 to 106 |
| O=C(NCc1ccccc1)c1ccc(-n2ccnc2S)cc1 | 216 to 218 |
| O=Cc1cc(Cl)cc(Cl)c1OC(F)F | 51 to 53 |
| C#CCNC(=O)c1cccnc1Cl | 107 to 109 |
| Cc1cc(N)nn1-c1ccccc1Cl | 63 to 65 |
| CC(NC(=O)CCl)c1cccs1 (centres undefined) | 92 to 94 |
| Cn1cc(C=O)c(-c2ccc(C#N)cc2)n1 | 156 to 158 |
| Clc1ccc(N2CCOCC2)nn1 | 131 to 133 |
| Cn1c(=O)cc(C(=O)O)c2ccccc21 | 250 to 252 |
| Cc1nc(C(=O)O)nn1-c1ccccc1Cl | 189 to 191 |
| Cc1cc(C)c2c(C#N)c[nH]c2n1 | 316 to 318 |
| FC(F)(F)c1n[nH]c2ccncc12 | 227 to 229 |
| CN1CCC(n2nccc2N)CC1 | 98 to 100 |
| CC(C)(c1cc(N)on1)S(C)(=O)=O | 179 to 181 |
| O=S(=O)(Cl)C=Cc1ccc(Cl)cc1 | 131 to 133 |
| NC(=O)c1cc(CCO)c(C(F)(F)F)[nH]c1=O | 230 to 232 |
| O=C1Nc2cc3c(cc2C1=O)OCCO3 | 210 to 212 |
| CNc1cc(-c2cccc(OC)c2)[nH]n1 | 109 to 111 |
| CC(=O)C(C#N)c1c(Cl)cccc1Cl (centres undefined) | 49 to 51 |
| CN(C)C(=O)CO | 32 to 34 |
| CCOC(=O)/C(C#N)=C(\N)C(Cl)(Cl)Cl | 94 to 96 |
| Cc1ccc(C)c(C(C)Nc2ccc(C(=O)O)cc2C)c1 (centres undefined) | 211 to 213 |

| SMILES | melting point [°C] |
| --- | --- |
| COc1cc(Cl)c(Cl)cc1C(=O)O | 148 to 150 |
| COc1ncccc1C(N)=O | 130 to 132 |
| O=C(O)c1cc(S(=O)(=O)Cl)ccc1Cl | 105 to 115 |
| O=C(O)c1cc2cc(Br)ccc2[nH]1 | 283 to 285 |
| CCn1c(N)cc(=O)[nH]c1=O | 125 to 127 |
| CC(=O)c1cnn(C)c1C | 47 to 49 |
| CC(C)OCc1cc(C(=O)O)ccc1F | 84 to 86 |
| C1CCC(c2nnc3n2CCCC3)NC1 (centres undefined) | 107 to 109 |
| CC(C)(C)c1ccc2oc(N)nc2c1 | 146 to 148 |
| Nc1ncc(C(F)(F)F)cc1Cl | 86 to 90 |
| CC(C)CNCC(O)c1ccc(F)cc1 (centres undefined) | 56 to 58 |
| O=C(O)CCNS(=O)(=O)c1ccc(F)cc1 | 123 to 127 |
| Nc1cc(N2CCCC2=O)ccc1Cl | 139 to 141 |
| Cc1ccc(NC2C=CS(=O)(=O)C2)cc1C (centres undefined) | 177 to 179 |
| CC(C)(C(=O)O)c1ccc(-c2ccccc2)cc1 | 173 to 175 |
| Cc1cccc(-c2nnc(S)o2)c1 | 157 to 161 |
| CC(C)(C)OC(=O)Nc1cccc(CCl)c1 | 103 to 105 |
| CC1(C)CCC(C#N)=C1N | 108 to 110 |
| O=C(O)C1CCN(c2ccc(C(F)(F)F)cc2[N+](=O)[O-])CC1 | 141 to 143 |
| CC1CCC(N)(C(=O)O)CC1 (centres undefined) | 200 to 202 |
| Cc1cc(Br)cc(C)c1N1CCCC1=O | 103 to 105 |
| Nc1nc(-c2cccc(O)c2)cs1 | 151 to 153 |
| C#Cc1cccc(NC(=O)NC(=O)CCl)c1 | 185 to 187 |
| Clc1ccc(NCc2cccnc2)c(Cl)c1 | 76 to 78 |
